Assay results: paper PMC7587931, “Affinity of Antifungal Isoxazolo[3,4-b]pyridine-3(1H)-Ones to Phospholipids in Immobilized Artificial Membrane (IAM) Chromatography” (Molecules, 2020)

Assays:
[1] = design: method as in PMID 31779124; conditions: RP-LC, determined previously; cited from earlier work
[2] = IAM-HPLC affinity to phospholipids (CHIIAM, gradient elution); type: physicochemical; conditions: IAM.PC.DD2 column, gradient 0-85% acetonitrile, 10 mM phosphoric buffer pH 7.4, 30.0 °C
Protocol: Thus, the CHI/CHIIAM values range from 0 to 100, corresponding to the concentration of acetonitrile in the mobile phase and reflecting the nature of the target compound: low and high values correspond to hydrophilic and lipophilic molecules, respectively.
All the HPLC experiments were carried out using a Prominence-1 LC-2030C 3D HPLC system (Shimadzu, Japan) equipped with a Diode-Array Detection (DAD) detector and an IAM.PC.DD2 column (10 × 4.6 mm; particle size 10.0 µm with an IAM guard column; Regis Technologies, Morton Grove, IL, USA). The LabSolution system (version 5.90, Shimadzu, Japan) was applied to control the HPLC system and for data collection. Before analysis, stock solutions of solutes were diluted to obtain concentrations of 100 μg/mL; the injected volume was 5 μL. The IAM-HPLC analyses were carried with a linear gradient of 0–85% phase B (where phase A was a 10 mM phosphoric buffer at pH 7.4 and phase B was acetonitrile) at a flow rate of 1.5 mL/min. The temperature of the chromatographic column was controlled and set to 30.0 °C and the analysis time was 6.5 min. The CHIIAM indices of the studied compounds were obtained using a calibration set of reference substances using the protocol proposed by Valko et al. [33]. Each HPLC analysis was run in triplicate.

Structure (SMILES) | logkw [1] | CHIIAM [2]
O=c1onc2[nH]c3ccccc3cc1-2 [Compound 1] | 2.36 | –
O=c1on(Cc2ccccc2)c2nc3ccccc3cc12 [Compound 2] | 3.98 | –
Cn1oc(=O)c2cc3ccccc3nc21 [Compound 3] | 2.87 | –
CC(=O)n1oc(=O)c2cc3ccccc3nc21 [Compound 4] | 2.79 | –
O=C(c1ccccc1)n1oc(=O)c2cc3ccccc3nc21 [Compound 5] | 3.76 | –
Cc1cc(C)c2c(=O)on(Cc3ccccc3)c2n1 [Compound 6] | 3.68 | –
CC(=O)n1oc(=O)c2c(C)cc(C)nc21 [Compound 7] | 2.53 | –
CCn1oc(=O)c2c(C)cc(C)nc21 [Compound 8] | 2.90 | –
Cc1cc(C)c2c(=O)on(C(=O)c3ccccc3)c2n1 [Compound 9] | 2.77 | 29.99
Cc1cc(C)c2c(=O)on(C)c2n1 [Compound 10] | 2.58 | –
COc1cc(Cn2oc(=O)c3c(C)cc(C)nc32)cc(OC)c1 [Compound 11] | 3.83 | –
CCCCn1oc(=O)c2c(C)cc(C)nc21 [Compound 13] | 3.69 | –
Cc1cc(C)c2c(=O)o[nH]c2n1 [Compound 14] | 2.07 | migrated together with the front of the mobile phase
CCCn1oc(=O)c2c(C)cc(C)nc21 [Compound 15] | 3.28 | –
C#CCn1oc(=O)c2c(C)cc(C)nc21 [Compound 16] | 2.81 | –
Cc1cc(C)c2c(=O)on(C(=O)c3ccc(F)cc3)c2n1 [Compound 17] | 3.70 | –
COc1cc(Cn2oc(=O)c3c(C)cc(C)nc32)cc(OC)c1OC [Compound 18] | 3.67 | –
COc1ccc2nc3c(cc2c1)c(=O)on3C [Compound 19] | 3.14 | –
Cn1oc(=O)c2cc3cc(F)ccc3nc21 [Compound 20] | 2.97 | –
Cn1oc(=O)c2cc3cc(Cl)ccc3nc21 [Compound 21] | 3.33 | 33.40
Cc1cc2cc3c(=O)on(C)c3nc2cc1C [Compound 22] | 3.50 | –
Cc1ccc2cc3c(=O)on(C)c3nc2c1 [Compound 24] | 3.21 | –
COc1ccc(OC)c2nc3c(cc12)c(=O)on3C [Compound 25] | 3.23 | –
Cc1ccc2nc3c(cc2c1)c(=O)on3C [Compound 26] | 3.24 | –
